In ChEMBL document CHEMBL5241075, “Advancement of chimeric hybrid drugs to cure malaria infection: An overview with special emphasis on endoperoxide pharmacophores” (Eur J Med Chem, 2021):
Converted amounts (≈) assume the structure as drawn.

How the values were obtained:
[1] = Stability of compound at pH 2 assessed as half life; type: physicochemical; conditions: buffer
[2] = test system: Plasmodium falciparum; experiment: Antiplasmodial activity against chloroquine resistant Plasmodium falciparum; type: functional, organism-based
[3] = test system: Plasmodium berghei; experiment: Antiplasmodial activity against Plasmodium berghei N infected in sc dosed mouse assessed as reduction in parasitemia; type: functional
[4] = test system: Plasmodium falciparum; experiment: Antiplasmodial activity against Plasmodium falciparum NF54; type: functional, organism-based
[5] = Therapeutic index, ratio of IC50 for antiproliferative activity against human HeLa cells to IC50 for antiplasmodial activity against Plasmodium falciparum K1; type: toxicity, cell-based; conditions: for selectivity ratio: HeLa cells, read-out: Ratio IC50
[6] = test system: HeLa; experiment: Antiproliferative activity against human HeLa cells assessed as cell growth inhibition; type: functional, cell-based
[7] = test system: Plasmodium falciparum; experiment: Antiplasmodial activity against Plasmodium falciparum D10; type: functional, organism-based
[8] = test system: Plasmodium falciparum; experiment: Antiplasmodial activity against Plasmodium falciparum K1; type: functional, organism-based
[9] = test system: Hemozoin; experiment: Inhibition of Beta-hematin in Plasmodium falciparum
[10] = test system: Plasmodium falciparum; experiment: Resistance index, ratio of IC50 for antiplasmodial activity against Plasmodium falciparum K1 to IC50 for antiplasmodial activity against Plasmodium falciparum D10; type: functional
[11] = test system: Plasmodium falciparum; experiment: Antiplasmodial activity against Plasmodium falciparum W2; type: functional, organism-based
[12] = test system: Plasmodium berghei; experiment: Antimalarial activity against liver stage Plasmodium berghei; type: functional, organism-based
[13] = test system: Caco-2; experiment: Cytotoxicity against human Caco-2 cells assessed as reduction in cell viability; type: functional
[14] = test system: Plasmodium berghei; experiment: Antimalarial activity against Plasmodium berghei infected in mouse assessed as reduction in parasitemia; type: functional; conditions: Plasmodium berghei
[15] = test system: Plasmodium falciparum; experiment: Antiplasmodial activity against Plasmodium falciparum 3D7; type: functional, organism-based
[16] = test system: Plasmodium yoelii; experiment: Antimalarial activity against Plasmodium yoelii infected in swiss mouse assessed as reduction in parasitemia at 96 mg/kg, po relative to control; type: functional; set-up: scale not given: the % may be the effect or the level left
[17] = test system: Plasmodium yoelii nigeriensis; experiment: Antiplasmodial activity against Plasmodium yoelii nigeriensis infected in po dosed mouse assessed as reduction in parasitemia; type: functional
[18] = test system: Plasmodium yoelii nigeriensis; experiment: Antiplasmodial activity against Plasmodium yoelii nigeriensis infected in sc dosed mouse assessed as reduction in parasitemia; type: functional
[19] = test system: Plasmodium falciparum; experiment: Antiplasmodial activity against Plasmodium falciparum D6; type: functional, organism-based
[20] = test system: Plasmodium falciparum; experiment: Antimalarial activity against chloroquine resistant Plasmodium falciparum FcM29 Cameron; type: functional, organism-based
[21] = test system: Plasmodium falciparum; experiment: Antiplasmodial activity against Plasmodium falciparum TM91C235; type: functional, organism-based
[22] = test system: Plasmodium falciparum; experiment: Antimalarial activity against chloroquine sensitive Plasmodium falciparum D6; type: functional, organism-based
[23] = test system: Plasmodium falciparum; experiment: Antiplasmodial activity against Plasmodium falciparum gametocytes by [3H]hypoxanthine incorporation assay; type: functional, organism-based
[24] = test system: Plasmodium falciparum; experiment: Antiplasmodial activity against Plasmodium falciparum gametocytes assessed as inhibition of gametocyte activation by [3H]hypoxanthine incorporation assay; type: functional, organism-based
[25] = test system: Plasmodium falciparum; experiment: Antiplasmodial activity against Plasmodium falciparum; type: functional, organism-based
[26] = test system: Plasmodium falciparum; experiment: Antiplasmodial activity against Plasmodium falciparum FcM29; type: functional, organism-based
[27] = test system: Plasmodium falciparum; experiment: Antimalarial activity against chloroquine resistant Plasmodium falciparum FcB1; type: functional, organism-based

Structure (SMILES): CCOC1(C(F)(F)F)O[C@@H]2O[C@]3(C)CC[C@H]4[C@H](C)CC[C@@H]([C@H]1C)[C@@]24OO3 (stereo partly drawn)
- half-life [1]: 20.8 days
- IC50 [2]: 0.0033 µM

Structure (SMILES): C[C@@H]1CC[C@H]2[C@@H](C)C(c3cccn3C)O[C@@H]3O[C@]4(C)CC[C@@H]1[C@]32OO4 (stereo partly drawn)
- ED50 [3]: 0.7 mg/kg
- IC50 [4]: 0.0046 µM

Structure (SMILES): COC1(C(F)(F)F)O[C@@H]2O[C@]3(C)CC[C@H]4[C@H](C)CC[C@@H]([C@H]1C)[C@@]24OO3 (stereo partly drawn)
- half-life [1]: 27.5 days
- IC50 [2]: 0.0008 µM

Structure (SMILES): C[C@@H]1CC[C@H]2[C@@H](C)C(OCc3ccc(C(=O)N(CCNc4ccnc5cc(Cl)ccc45)CC(=O)NC(C)(C)C)cc3)O[C@@H]3O[C@]4(C)CC[C@@H]1[C@]32OO4.O=C(O)CC(O)(CC(=O)O)C(=O)O (stereo partly drawn)
- Ratio IC50 [5]: 20
- IC50 ([6]; hela): 0.356 µM
- IC50 [7]: 0.024 µM
- IC50 [8]: 0.018 µM
- IC50 [9]: 0.4 equiv
- Ratio IC50 [10]: 0.7

Structure (SMILES): COc1cc(NC(C)CCCNC(=O)C2CCC3(CC2)OOC2(OO3)C3CC4CC(C3)CC2C4)c2nccc(C(F)(F)F)c2c1 (stereo not drawn)
- EC50 [11]: 0.06 µM
- EC50 [12]: 4.12 µM
- CC50 [13]: > 50000 µM

Structure (SMILES): C[C@@H]1CC[C@H]2[C@@H](C)C(OC(=O)CCC(=O)O)(C(F)(F)F)O[C@@H]3O[C@]4(C)CC[C@@H]1[C@]32OO4 (stereo partly drawn)
- half-life [1]: 1.25 days
- IC50 [2]: 0.0041 µM

Structure (SMILES): C[C@@H]1CC[C@H]2[C@@H](C)C(CCN3CCN(c4ccc(C(F)(F)F)cc4)CC3)O[C@@H]3O[C@]4(C)CC[C@@H]1[C@]32OO4 (stereo partly drawn)
- ED50 [14]: 6 mg/kg
- IC50 ([8]; Plasmodium falciparum, K1): 0.00619 µM

Structure (SMILES): C[C@H]1[C@@H](O)O[C@@H]2C[C@]3(C)CC[C@H]4[C@H](C)CC[C@@H]1[C@@]24OO3
- EC50 ([15]; read-out: EC50): 0.0024 µM
- IC50 ([7]; Plasmodium falciparum, D10): 0.004 µM
- IC50 ([8]; Plasmodium falciparum, K1): 0.003 µM
- IC50 [4]: < 0.007 µM
- Ratio IC50 [10]: 0.75

Structure (SMILES): C=C(c1ccccc1)C1COC2(CCC(NCCNc3ccnc4cc(Cl)ccc34)CC2)OO1 (stereo not drawn)
- Activity [16]: 89%

Structure (SMILES): C[C@H]1[C@@H](OCc2ccc(C(=O)O)cc2)O[C@@H]2O[C@@]3(C)CC[C@H]4[C@H](C)CC[C@@H]1[C@@]24OO3
- EC50 ([15]; read-out: ED50 (the source's name)): 4 ng/mL
- IC50 ([7]; Plasmodium falciparum, D10): 0.006 µM
- IC50 ([8]; Plasmodium falciparum, K1): 0.006 µM
- EC50 ([8]; Plasmodium falciparum, K1, read-out: ED50 (the source's name)): 1.4 ng/mL (≈ 3.35 nM)
- Ratio IC50 [10]: 0.75

Structure (SMILES): C[C@@H]1CC[C@H]2[C@@H](C)C(=O)O[C@@H]3O[C@@]4(C)CC[C@@H]1[C@]32OO4 [ARTEMISININ]
- CD50 [17]: 75 mg/kg/day
- CD90 [17]: >100 mg/kg/day
- ED50 ([17]; Plasmodium yoelii): 16 mg/kg/day
- ED90 ([17]; Plasmodium yoelii): 27 mg/kg/day
- CD50 [18]: 3 mg/kg/day
- CD90 [18]: 5 mg/kg/day
- ED50 ([18]; Plasmodium yoelii): 3 mg/kg/day
- ED90 ([18]; Plasmodium yoelii): 5 mg/kg/day
- IC50 [11]: 0.0067 µM
- IC90 [11]: 0.0115 µM
- IC50 [15]: 0.00532 µM
- IC50 ([7]; Plasmodium falciparum, D10): 0.023 µM
- IC50 [19]: 0.009 µM
- IC90 [19]: 0.0128 µM
- IC50 [20]: 0.007 µM
- IC50 [21]: 0.013 µM
- IC90 [21]: 0.0174 µM
- IC50 [9]: 0.66 equiv
- IC50 [22]: 0.008 µM

Structure (SMILES): C[C@@H]1CC[C@H]2[C@@H](C)C(O)(C(F)(F)F)O[C@@H]3O[C@]4(C)CC[C@@H]1[C@]32OO4 (stereo partly drawn)
- half-life [1]: 31.7 days
- IC50 [2]: 0.0094 µM

Structure (SMILES): COc1cc(NC(C)CCCNC(=O)C2CCC3(CC2)OOC2(OO3)C3CC4CC(C3)CC2C4)c2nccc(F)c2c1 (stereo not drawn)
- EC50 [11]: 0.057 µM
- EC50 [12]: 2.38 µM
- CC50 [13]: > 50000 µM

Structure (SMILES): O[C@@H](c1cc(C(F)(F)F)nc2c(C(F)(F)F)cccc12)[C@H]1CCCCN1 [(S,R)-MEFLOQUINE]
- IC90 [11]: 0.64 µM
- IC50 [23]: 16500 µM
- IC50 [21]: 0.13 µM
- IC90 [21]: 0.264 µM
- IC50 [24]: 5600 µM

Structure (SMILES): C=C(c1ccccc1)C1COC2(CCC(NCCCCNc3ccnc4cc(Cl)ccc34)CC2)OO1 (stereo not drawn)
- Activity [16]: 89%

Structure (SMILES): CC(C)C1=C[C@H]2OC3(CCC(NCCNc4ccnc5cc(Cl)ccc45)CC3)OO[C@@]2(C)CC1 (stereo partly drawn)
- IC50 [25]: 0.009 µM
- IC50 [26]: 0.021 µM
- IC50 [27]: 0.006 µM

Structure (SMILES): C[C@@H]1CC[C@H]2[C@@H](C)C(OCc3ccc(C(=O)N(CCNc4ccnc5cc(Cl)ccc45)CC(=O)NC(C)(C)C)cc3)O[C@@H]3O[C@]4(C)CC[C@@H]1[C@]32OO4 (stereo partly drawn)
- selectivity ratio [5]: 26
- IC50 ([6]; Homo sapiens, HeLa): 0.496 µM
- IC50 ([7]; Plasmodium falciparum, D10): 0.027 µM
- IC50 ([8]; Plasmodium falciparum, K1): 0.019 µM
- IC50 [9]: 0.44 equiv
- Ratio IC50 [10]: 0.6

Structure (SMILES): C[C@@H]1CC[C@H]2[C@@H](C)C(OCc3ccc(C(=O)N(CCCCNc4ccnc5cc(Cl)ccc45)CC(=O)NC4CCCCC4)cc3)O[C@@H]3O[C@]4(C)CC[C@@H]1[C@]32OO4 (stereo partly drawn)
- selectivity ratio [5]: 8
- IC50 ([6]; Homo sapiens, HeLa): 0.169 µM
- IC50 ([7]; Plasmodium falciparum, D10): 0.035 µM
- IC50 ([8]; Plasmodium falciparum, K1): 0.021 µM
- IC50 [9]: 0.31 equiv
- Ratio IC50 [10]: 0.88

Structure (SMILES): C=C(c1ccccc1)C1COC2(CCC(NCCCNc3ccnc4cc(Cl)ccc34)CC2)OO1 (stereo not drawn)
- Activity [16]: 89%

Structure (SMILES): C[C@@H]1CC[C@H]2[C@@H](C)C(OCc3ccc(C(=O)N(CCNc4ccnc5cc(Cl)ccc45)CC(=O)NC4CCCCC4)cc3)O[C@@H]3O[C@]4(C)CC[C@@H]1[C@]32OO4 (stereo partly drawn)
- selectivity ratio [5]: 12
- IC50 ([6]; Homo sapiens, HeLa): 0.286 µM
- IC50 ([7]; Plasmodium falciparum, D10): 0.026 µM
- IC50 ([8]; Plasmodium falciparum, K1): 0.023 µM
- IC50 [9]: 0.45 equiv
- Ratio IC50 [10]: 1

Structure (SMILES): COc1cc(NC(C)CCCNC(=O)C2CCC3(CC2)OOC2(OO3)C3CC4CC(C3)CC2C4)c2nccc(Br)c2c1 (stereo not drawn)
- EC50 [11]: 0.061 µM
- EC50 [12]: 4.44 µM
- CC50 [13]: > 50000 µM

Structure (SMILES): COc1cc(NC(C)CCCNC(=O)C2CCC3(CC2)OOC2(OO3)C3CC4CC(C3)CC2C4)c2nccc(Cl)c2c1 (stereo not drawn)
- EC50 [11]: 0.075 µM
- EC50 [12]: 2.81 µM
- CC50 [13]: > 50000 µM
